Measurements taken from patent US20090105155A1, “TRUNCATED LHRH FORMULATIONS” (priority 2004, published 2009).
Where no end group is shown, it is not given here.

Columns and labels:
Assay type in all cases: in vivo
[1] = test system: LHRH; assay: Anti-LHRH antibody titres induced by different priming and boosting regimes (Example 2); conditions: Beagles/foxhound dogs, 5 nmoles total peptides (pool p25, p35, p62) with Iscomatrix; for titres of antibodies following the second dose of vaccine: doses week 0, 4, 14, LHRH (2-10) compared with LHRH (6-10)
Text: (§1) Beagles/foxhound dogs were divided into three groups. One group (12 dogs) received three doses of 5 nmoles of total peptides consisting of a pool of peptides p25, p35 and p62 coupled to LHRH (6-10).
(§2) A second group (6 dogs) received three doses of 5 nmoles of total peptides consisting of a pool of peptides p25, p35 and p62 coupled to LHRH (2-10).
(§3) A third group (6 dogs) received three doses of 5 nmoles of total peptides consisting of a pool of peptides p25, p35 and p62 coupled to LHRH (2-10) as the first dose. For the second and third dose the vaccine was the same pool of peptides but coupled to LHRH (6-10).
(§4) The dogs received the three doses of vaccine in week 0, 4 and 14 respectively.
(§5) 1 to 1.5 mg of each of the peptides were weighed out and dissolved in 100 ul of 4 M urea separately. The amounts of the solutions corresponding to 1.7 nmoles of each peptide were mixed and diluted with isotonic saline to the designated dose volume for injection (1 ml per dose). For each dose 150 ug of Iscomatrix•® (CSL, Melbourne, Australia) was also added as adjuvant. The vaccine was given to dogs in the scruff of the neck.

[2] = test system: LHRH; assay: Anti-LHRH antibody titres induced by LHRH (6-10) and LHRH (4-10) (Example 3); conditions: Beagles/foxhound dogs; 35 nmoles total peptides (pool p4, p10, p24, p25, p27, p35, p62) with Iscomatrix; week 0, 4, 14; compared with LHRH (6-10)
Procedure: (§6) Beagles/foxhound dogs were divided into two groups. One group (15 dogs) received three doses of 35 nmoles of total peptides consisting of a pool of peptides p4, p10, p24, p25, p27, p35 and p62 coupled to LHRH (6-10).
(§7) A second group (15 dogs) received three doses of 35 nmoles of total peptides consisting of a pool of peptides p4, p10, p24, p25, p27, p35 and p62 coupled to LHRH (4-10).
as §4
as §5, with “5” for “1.7”

[3] = test system: LHRH; assay: Testosterone and progesterone levels following vaccination with LHRH (6-10) or LHRH (4-10) (Example 3); conditions: Beagles/foxhound dogs, 35 nmoles total peptides, 7-peptide pool with Iscomatrix; for hormone breakthrough: testosterone and progesterone
Procedure: as §6, §7, §4
as §5, with “5” for “1.7”

[4] = test system: LHRH; assay: Testosterone and progesterone levels in vaccinated dogs (Example 2); conditions: Beagles/foxhound dogs; two doses; proportion of animals, compared with the other regimes
Text: as §1, §2, §3, §4, §5

Question: Which “titre in the primary antibody response” value ([1]; comparison of the three regimes) does the source give for “LHRH (2-10)-LHRH (6-10): Regime: p25, p35, p62 pool coupled to LHRH (2-10) as first dose, same pool coupled to LHRH (6-10) for second and third dose (HWSYGLRPG; ends and bridges not checked; also: coupled to T helper peptide pool; UniProt P01148 25-33, looked up, fragment)” here?
Answer: lowest titres

Question: With “LHRH (2-10): Vaccine: pool of peptides p25, p35 and p62 coupled to LHRH (2-10), with Iscomatrix adjuvant (HWSYGLRPG; ends and bridges not checked; also: coupled to T helper peptide pool; UniProt P01148 25-33, looked up, fragment)” as the substance, how does the “titres of antibodies following the second dose of vaccine” value [1] read?
Answer: little apparent difference

Question: Which titres of antibodies [2] does the source give for “LHRH (4-10): Vaccine: pool of peptides p4, p10, p24, p25, p27, p35 and p62 coupled to LHRH (4-10) (SYGLRPG), with Iscomatrix adjuvant” here?
Answer: Higher titres

Question: And the “effect on progesterone levels” value ([3]; compared with LHRH (6-10))?
Answer: more striking effect

Question: What about the “effect on testosterone levels” value ([3]; compared with LHRH (6-10)) of the same substance?
Answer: more striking effect

Question: What about the hormone breakthrough [3] of the same substance?
Answer: no animals show hormone breakthrough

Question: How did the levels of progesterone [4] turn out when “LHRH (6-10): Vaccine: T helper epitope peptides coupled to LHRH (6-10), Iscomatrix; pool p25, p35, p62 (Example 2) or seven-peptide pool (Example 3) (GLRPG; ends and bridges not checked; also: coupled to T helper peptide pool; UniProt P01148 29-33, looked up, fragment)” was run?
Answer: lower levels

Question: And the levels of testosterone [4]?
Answer: lower levels

Question: And the “titres of antibodies following the second dose of vaccine” value [1]?
Answer: little apparent difference

Question: What about the hormone breakthrough [3] of the same substance?
Answer: hormone breakthrough
